# Biological target: presenilin-1 (Homo sapiens, UniProt P49768)
# Format: biochemical
smiles,measurement,value
CC(C)C[C@H](NC(=O)[C@H](Cc1ccccc1)C[C@@H](O)[C@H](Cc1ccc(C(=O)c2ccccc2)cc1)NC(=O)OC(C)(C)C)C(=O)N[C@@H](Cc1ccccc1)C(=O)NCCCCCNC(=O)CCCC[C@@H]1SC[C@@H]2NC(=O)N[C@@H]21 [compound 3],IC50,0.6 nM

# From paper PMC3254698 (Bioorganic & medicinal chemistry letters, 2008)
